What was measured:
Assay type in all cases: in vivo
[1] = system: crabgrass; assay: Test Example 3: weedkilling efficacy through soil treatment; D: crabgrass; conditions: treatment dosage 315 g/ha
Method in brief: (§1)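 Crop and weed responses were judged three weeks after a uniform surface spray of the water-diluted emulsion at the given g/ha rate. Seeds sat beneath about 1.5 cm of sterilized diluvial soil, and boxes stood in a greenhouse at 25 to 30° C.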

[2] = system: barnyard grass; assay: Test Example 1: weedkilling efficacy, preemergent weed treatment in the submerged state; A: barnyard grass; conditions: treatment dosage 252 g/ha
Method in brief: (§2)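 Submerged pre-emergence treatment, water-surface application of compound emulsion at g/ha dosages; 4 cm flooded alluvial soil, weeds sown and 2.5-leaf rice transplanted same day. Rated after 3 weeks, greenhouse.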

[3] = system: chickweed; assay: Test Example 4: weedkilling efficacy by foliar treatment; N: chickweed; conditions: treatment dosage 315 g/ha
Method in brief: (§3)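 Seeds are spot-sown into sterilized diluvial soil and covered with about 1.5 cm of soil. After 14 days' greenhouse growth at 25 to 30° C, plants are sprayed on stems and leaves with diluted emulsion at the stated g/ha rate, then scored at 3 weeks.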

[4] = system: catchweed; assay: Test Example 3: weedkilling efficacy through soil treatment; O: catchweed; conditions: treatment dosage 315 g/ha
Method in brief: as §1

[5] = system: soybean; assay: Test Example 3: soil treatment, effect on crop; d: soybean; conditions: treatment dosage 315 g/ha
Method in brief: as §1

[6] = system: black-grass; assay: Test Example 4: weedkilling efficacy by foliar treatment; H: black-grass; conditions: treatment dosage 315 g/ha
Method in brief: as §3

[7] = system: directly sown rice; assay: Test Example 3: soil treatment, effect on crop; b: directly sown rice; conditions: treatment dosage 315 g/ha
Method in brief: as §1

[8] = system: corn; assay: Test Example 4: foliar treatment, effect on crop; c: corn; conditions: treatment dosage 315 g/ha
Method in brief: as §3

[9] = system: soybean; assay: Test Example 4: foliar treatment, effect on crop; d: soybean; conditions: treatment dosage 315 g/ha
Method in brief: as §3

[10] = system: beet; assay: Test Example 4: foliar treatment, effect on crop; f: beet; conditions: treatment dosage 315 g/ha
Method in brief: as §3

[11] = system: Indian mallow; assay: Test Example 4: weedkilling efficacy by foliar treatment; K: Indian mallow; conditions: treatment dosage 315 g/ha
Method in brief: as §3

[12] = system: barnyard grass; assay: Test Example 2: weedkilling efficacy, growth period weed treatment in the submerged state; A: barnyard grass; conditions: treatment dosage 252 g/ha
Method in brief: (§4)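 Seedlings at 1-2 leaves in 4 cm-deep submerged alluvial soil received emulsion formulations on the water surface, dosed per hectare; effects were judged 3 weeks on.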

[13] = system: fig-leafed goosefoot; assay: Test Example 4: weedkilling efficacy by foliar treatment; M: fig-leafed goosefoot; conditions: treatment dosage 315 g/ha
Method in brief: as §3

[14] = system: wheat; assay: Test Example 4: foliar treatment, effect on crop; e: wheat; conditions: treatment dosage 315 g/ha
Method in brief: as §3

[15] = system: green foxtail; assay: Test Example 3: weedkilling efficacy through soil treatment; E: green foxtail; conditions: treatment dosage 315 g/ha
Method in brief: as §1

[16] = system: oval-leafed pondweed; assay: Test Example 2: weedkilling efficacy, growth period weed treatment in the submerged state; C: oval-leafed pondweed; conditions: treatment dosage 252 g/ha
Method in brief: as §4

[17] = system: wild oat; assay: Test Example 4: weedkilling efficacy by foliar treatment; G: wild oat; conditions: treatment dosage 315 g/ha
Method in brief: as §3

[18] = system: crabgrass; assay: Test Example 4: weedkilling efficacy by foliar treatment; D: crabgrass; conditions: treatment dosage 315 g/ha
Method in brief: as §3

[19] = system: wild oat; assay: Test Example 3: weedkilling efficacy through soil treatment; G: wild oat; conditions: treatment dosage 315 g/ha
Method in brief: as §1

[20] = system: chickweed; assay: Test Example 3: weedkilling efficacy through soil treatment; N: chickweed; conditions: treatment dosage 315 g/ha
Method in brief: as §1

[21] = system: fig-leafed goosefoot; assay: Test Example 3: weedkilling efficacy through soil treatment; M: fig-leafed goosefoot; conditions: treatment dosage 315 g/ha
Method in brief: as §1

[22] = system: green foxtail; assay: Test Example 4: weedkilling efficacy by foliar treatment; E: green foxtail; conditions: treatment dosage 315 g/ha
Method in brief: as §3

[23] = system: Italian ryegrass; assay: Test Example 4: weedkilling efficacy by foliar treatment; I: Italian ryegrass; conditions: treatment dosage 315 g/ha
Method in brief: as §3

[24] = system: birds-eye speedwell; assay: Test Example 4: weedkilling efficacy by foliar treatment; p: birds-eye speedwell; conditions: treatment dosage 315 g/ha
Method in brief: as §3

[25] = system: directly sown rice; assay: Test Example 4: foliar treatment, effect on crop; b: directly sown rice; conditions: treatment dosage 315 g/ha
Method in brief: as §3

[26] = system: Italian ryegrass; assay: Test Example 3: weedkilling efficacy through soil treatment; I: Italian ryegrass; conditions: treatment dosage 315 g/ha
Method in brief: as §1

[27] = system: transplanted rice; assay: Test Example 1: preemergent weed treatment in the submerged state, effect on crop; a: transplanted rice; conditions: treatment dosage 252 g/ha
Method in brief: as §2

[28] = system: catchweed; assay: Test Example 4: weedkilling efficacy by foliar treatment; O: catchweed; conditions: treatment dosage 315 g/ha
Method in brief: as §3

[29] = system: oval-leafed pondweed; assay: Test Example 1: weedkilling efficacy, preemergent weed treatment in the submerged state; C: oval-leafed pondweed; conditions: treatment dosage 252 g/ha
Method in brief: as §2

[30] = system: bulrush; assay: Test Example 1: weedkilling efficacy, preemergent weed treatment in the submerged state; B: bulrush; conditions: treatment dosage 252 g/ha
Method in brief: as §2

[31] = system: redroot pigweed; assay: Test Example 3: weedkilling efficacy through soil treatment; L: redroot pigweed; conditions: treatment dosage 315 g/ha
Method in brief: as §1

[32] = system: Indian mallow; assay: Test Example 3: weedkilling efficacy through soil treatment; K: Indian mallow; conditions: treatment dosage 315 g/ha
Method in brief: as §1

[33] = system: wheat; assay: Test Example 3: soil treatment, effect on crop; e: wheat; conditions: treatment dosage 315 g/ha
Method in brief: as §1

[34] = system: bulrush; assay: Test Example 2: weedkilling efficacy, growth period weed treatment in the submerged state; B: bulrush; conditions: treatment dosage 252 g/ha
Method in brief: as §4

[35] = system: black-grass; assay: Test Example 3: weedkilling efficacy through soil treatment; H: black-grass; conditions: treatment dosage 315 g/ha
Method in brief: as §1

[36] = system: beet; assay: Test Example 3: soil treatment, effect on crop; f: beet; conditions: treatment dosage 315 g/ha
Method in brief: as §1

[37] = system: redroot pigweed; assay: Test Example 4: weedkilling efficacy by foliar treatment; L: redroot pigweed; conditions: treatment dosage 315 g/ha
Method in brief: as §3

[38] = system: corn; assay: Test Example 3: soil treatment, effect on crop; c: corn; conditions: treatment dosage 315 g/ha
Method in brief: as §1

Structure (SMILES)	D (crabgrass) weedkilling efficacy grade [1]	A (barnyard grass) weedkilling efficacy grade [2]	N (chickweed) weedkilling efficacy grade [3]	O (catchweed) weedkilling efficacy grade [4]	d (soybean) effect on crop grade [5]	H (black-grass) weedkilling efficacy grade [6]	b (directly sown rice) effect on crop grade [7]	c (corn) effect on crop grade [8]	d (soybean) effect on crop grade [9]	f (beet) effect on crop grade [10]	K (Indian mallow) weedkilling efficacy grade [11]	A (barnyard grass) weedkilling efficacy grade [12]	M (fig-leafed goosefoot) weedkilling efficacy grade [13]	e (wheat) effect on crop grade [14]	E (green foxtail) weedkilling efficacy grade [15]	C (oval-leafed pondweed) weedkilling efficacy grade [16]	G (wild oat) weedkilling efficacy grade [17]	D (crabgrass) weedkilling efficacy grade [18]	G (wild oat) weedkilling efficacy grade [19]	N (chickweed) weedkilling efficacy grade [20]	further results
CC1=C(c2ccccc2)C(=O)N(C(C)(C)C(=O)Nc2cc(Br)ccn2)CO1 [B-2-30]	5 (weed kill ratio 90% or more, (practically complete withering))	5 (weed kill ratio 90% or more, (practically complete withering))	3 (weed kill ratio 40% or more, less than 70%)	5 (weed kill ratio 90% or more, (practically complete withering))	1 (weed kill ratio 5% or more, less than 20%)	3 (weed kill ratio 40% or more, less than 70%)	4 (weed kill ratio 70% or more, less than 90%)	1 (weed kill ratio 5% or more, less than 20%)	4 (weed kill ratio 70% or more, less than 90%)	4 (weed kill ratio 70% or more, less than 90%)	4 (weed kill ratio 70% or more, less than 90%)	5 (weed kill ratio 90% or more, (practically complete withering))	4 (weed kill ratio 70% or more, less than 90%)	0 (weed kill ratio 5% or less (practically no effect))	5 (weed kill ratio 90% or more, (practically complete withering))	3 (weed kill ratio 40% or more, less than 70%)	3 (weed kill ratio 40% or more, less than 70%)	5 (weed kill ratio 90% or more, (practically complete withering))	5 (weed kill ratio 90% or more, (practically complete withering))	4 (weed kill ratio 70% or more, less than 90%)	M (fig-leafed goosefoot) weedkilling efficacy grade [21]: 5 (weed kill ratio 90% or more, (practically complete withering)); E (green foxtail) weedkilling efficacy grade [22]: 5 (weed kill ratio 90% or more, (practically complete withering)); I (Italian ryegrass) weedkilling efficacy grade [23]: 4 (weed kill ratio 70% or more, less than 90%); P (birds-eye speedwell) weedkilling efficacy grade [24]: 4 (weed kill ratio 70% or more, less than 90%); b (directly sown rice) effect on crop grade [25]: 5 (weed kill ratio 90% or more, (practically complete withering)); I (Italian ryegrass) weedkilling efficacy grade [26]: 5 (weed kill ratio 90% or more, (practically complete withering)); a (transplanted rice) effect on crop grade [27]: 1 (weed kill ratio 5% or more, less than 20%); O (catchweed) weedkilling efficacy grade [28]: 4 (weed kill ratio 70% or more, less than 90%); C (oval-leafed pondweed) weedkilling efficacy grade [29]: 5 (weed kill ratio 90% or more, (practically complete withering)); B (bulrush) weedkilling efficacy grade [30]: 5 (weed kill ratio 90% or more, (practically complete withering)); L (redroot pigweed) weedkilling efficacy grade [31]: 3 (weed kill ratio 40% or more, less than 70%); K (Indian mallow) weedkilling efficacy grade [32]: 3 (weed kill ratio 40% or more, less than 70%); e (wheat) effect on crop grade [33]: 0 (weed kill ratio 5% or less (practically no effect)); B (bulrush) weedkilling efficacy grade [34]: 5 (weed kill ratio 90% or more, (practically complete withering)); H (black-grass) weedkilling efficacy grade [35]: 5 (weed kill ratio 90% or more, (practically complete withering)); f (beet) effect on crop grade [36]: 4 (weed kill ratio 70% or more, less than 90%); L (redroot pigweed) weedkilling efficacy grade [37]: 4 (weed kill ratio 70% or more, less than 90%); c (corn) effect on crop grade [38]: 1 (weed kill ratio 5% or more, less than 20%)
CC1=C(c2ccccc2)C(=O)N(C(C)(C)C(=O)Nc2cc(C(F)(F)F)cc(Cl)n2)CO1 [B-2-37]	5 (weed kill ratio 90% or more, (practically complete withering))	5 (weed kill ratio 90% or more, (practically complete withering))	4 (weed kill ratio 70% or more, less than 90%)	4 (weed kill ratio 70% or more, less than 90%)	0 (weed kill ratio 5% or less (practically no effect))	4 (weed kill ratio 70% or more, less than 90%)	3 (weed kill ratio 40% or more, less than 70%)	4 (weed kill ratio 70% or more, less than 90%)	3 (weed kill ratio 40% or more, less than 70%)	4 (weed kill ratio 70% or more, less than 90%)	4 (weed kill ratio 70% or more, less than 90%)	5 (weed kill ratio 90% or more, (practically complete withering))	3 (weed kill ratio 40% or more, less than 70%)	1 (weed kill ratio 5% or more, less than 20%)	5 (weed kill ratio 90% or more, (practically complete withering))	5 (weed kill ratio 90% or more, (practically complete withering))	3 (weed kill ratio 40% or more, less than 70%)	5 (weed kill ratio 90% or more, (practically complete withering))	5 (weed kill ratio 90% or more, (practically complete withering))	4 (weed kill ratio 70% or more, less than 90%)	M (fig-leafed goosefoot) weedkilling efficacy grade [21]: 4 (weed kill ratio 70% or more, less than 90%); E (green foxtail) weedkilling efficacy grade [22]: 5 (weed kill ratio 90% or more, (practically complete withering)); I (Italian ryegrass) weedkilling efficacy grade [23]: 4 (weed kill ratio 70% or more, less than 90%); P (birds-eye speedwell) weedkilling efficacy grade [24]: 4 (weed kill ratio 70% or more, less than 90%); b (directly sown rice) effect on crop grade [25]: 4 (weed kill ratio 70% or more, less than 90%); I (Italian ryegrass) weedkilling efficacy grade [26]: 5 (weed kill ratio 90% or more, (practically complete withering)); a (transplanted rice) effect on crop grade [27]: 2 (weed kill ratio 20% or more, less than 40%); O (catchweed) weedkilling efficacy grade [28]: 3 (weed kill ratio 40% or more, less than 70%); C (oval-leafed pondweed) weedkilling efficacy grade [29]: 5 (weed kill ratio 90% or more, (practically complete withering)); B (bulrush) weedkilling efficacy grade [30]: 5 (weed kill ratio 90% or more, (practically complete withering)); L (redroot pigweed) weedkilling efficacy grade [31]: 5 (weed kill ratio 90% or more, (practically complete withering)); K (Indian mallow) weedkilling efficacy grade [32]: 4 (weed kill ratio 70% or more, less than 90%); e (wheat) effect on crop grade [33]: 0 (weed kill ratio 5% or less (practically no effect)); B (bulrush) weedkilling efficacy grade [34]: 5 (weed kill ratio 90% or more, (practically complete withering)); H (black-grass) weedkilling efficacy grade [35]: 5 (weed kill ratio 90% or more, (practically complete withering)); f (beet) effect on crop grade [36]: 4 (weed kill ratio 70% or more, less than 90%); L (redroot pigweed) weedkilling efficacy grade [37]: 4 (weed kill ratio 70% or more, less than 90%); c (corn) effect on crop grade [38]: 1 (weed kill ratio 5% or more, less than 20%)
